Measured values reported in patent publication EP0217101A1, “Substituted diphenyl ethers, process for their preparation and their use as herbicides” (HOECHST AKTIENGESELLSCHAFT, priority 1985, dated 1987).

How the values were obtained:
Format in all cases: in vivo
Chrysanthemum segetum [1] = test: Weed control pre-emergence (greenhouse pot test); conditions: pre-emergence, 2,5 kg a.i./ha, visual rating after 3-4 weeks
Excerpt: (§1) Die Schädigung der Unkrautpflanzen bzw. die Kulturpflanzenverträglichkeit wurde gemäß einem Schlüssel bonitiert, in dem die Wirksamkeit durch Wertzahlen von 0 - 5 ausgedrückt ist. Dabei bedeutet:
(§2) Samen bzw. Rhizomstücke von mono- und dikotylen Unkrautpflanzen wurden in Plasstiktöpfen (0 = 9 cm) in sandiger Lehmerde ausgelegt und mit Erde abgedeckt. Die in Form von benetzbaren Pulvern oder Emulsionskonzentraten formulierten erfindungsgemäßen Verbindungen wurden dann als wäßrige Suspensionen bzw. Emulsionen mit einer Wasseraufwandmenge von umgerechnet 600-800 1/ha in unterschiedlichen Dosierungen auf die Oberfläche der Abdeckerde appliziert. Nach der Behandlung wurden die Töpfe im Gewächshaus aufgestellt und unter guten Wachstumsbedingungen für die Unkrautpflanzen gehalten (Temperatur 23 plus/minus 1 Grad Celsius, relative Luftfeuchte 60-80 %).
(§3) Die optische Bonitur der Pflanzen- bzw. Auflaufschäden erfolgte nach dem Auflaufen der Versuchspflanzen nach einer Versuchszeit von 3-4 Wochen im Vergleich zu unbehandelten Kontrollen.

Avena sativa [2] = test: Weed control pre-emergence (greenhouse pot test); conditions: pre-emergence, 2,5 kg a.i./ha, visual rating after 3-4 weeks
Excerpt: as §1, §2, §3

Sinapis arvensis [3] = test: Weed control pre-emergence (greenhouse pot test); conditions: pre-emergence, 2,5 kg a.i./ha, visual rating after 3-4 weeks
Excerpt: as §1, §2, §3

Stellaria media [4] = test: Weed control pre-emergence (greenhouse pot test); set-up: key: 0: = ohne Wirkung bzw. Schaden; 1: = 0 - 20 % Wirkung bzw. Schaden; = 20 - 40 % Wirkung bzw. Schaden; 3: = 40 - 60 % Wirkung bzw. Schaden; 4: = 60 - 80 % Wirkung bzw. Schaden; 5: = 80 - 100 % Wirkung bzw. Schaden; conditions: pre-emergence, 2,5 kg a.i./ha, visual rating after 3-4 weeks
Excerpt: as §1, §2, §3

Echinochloa crus-galli [5] = test: Weed control pre-emergence (greenhouse pot test); set-up: key: 0: = ohne Wirkung bzw. Schaden; 1: = 0 - 20 % Wirkung bzw. Schaden; = 20 - 40 % Wirkung bzw. Schaden; 3: = 40 - 60 % Wirkung bzw. Schaden; 4: = 60 - 80 % Wirkung bzw. Schaden; 5: = 80 - 100 % Wirkung bzw. Schaden; conditions: pre-emergence, 2,5 kg a.i./ha, visual rating after 3-4 weeks
Excerpt: as §1, §2, §3

Chrysanthemum segetum [6] = test: Weed control post-emergence (greenhouse pot test); conditions: post-emergence (three-leaf stage), 2,5 kg a.i./ha, visual rating after ca. 3-4 weeks
Excerpt: as §1
(§4) Samen bzw. Rhizomstüeke von mono- und dikotylen Unkräutern wurden in Plasstiktöpfen (φ= 9 cm) in sandigem Lehmboden ausgelegt, mit Erde abgedeckt und im Gewächshaus unter guten Wachstumsbedingungen angezogen. Drei Wochen nach der Aussaat wurden die Versuchspflanzen im Dreiblattstadium behandelt. Die als Spritzpulver bzw. als Eτulsionskonzentrate formulierten erfindungsgemäßen Verbindungen wurden in verschiedenen Dosierungen mit einer Wasseraufwandmenge von umgerechnet 600-800 l/ha auf die grünen Pflanzenteile gesprüht und nach ca. 3-4 Wochen Standzeit der Versuchspflanzen im Gewächshaus unter optimalen Wachstumsbedingungen (Temperatur 23°C +/- 1°C, relative Luftfeuchte 60-80 %) die Wirkung der Präparate optisch im Vergleich zu unbehandelten Kontrollen bonitiert.

Avena sativa [7] = test: Weed control post-emergence (greenhouse pot test); conditions: post-emergence (three-leaf stage), 2,5 kg a.i./ha, visual rating after ca. 3-4 weeks
Excerpt: as §1, §4

Sinapis arvensis [8] = test: Weed control post-emergence (greenhouse pot test); conditions: post-emergence (three-leaf stage), 2,5 kg a.i./ha, visual rating after ca. 3-4 weeks
Excerpt: as §1, §4

Stellaria media [9] = test: Weed control post-emergence (greenhouse pot test); set-up: key: 0: = ohne Wirkung bzw. Schaden; 1: = 0 - 20 % Wirkung bzw. Schaden; = 20 - 40 % Wirkung bzw. Schaden; 3: = 40 - 60 % Wirkung bzw. Schaden; 4: = 60 - 80 % Wirkung bzw. Schaden; 5: = 80 - 100 % Wirkung bzw. Schaden; conditions: post-emergence (three-leaf stage), 2,5 kg a.i./ha, visual rating after ca. 3-4 weeks
Excerpt: as §1, §4

Echinochloa crus-galli [10] = test: Weed control post-emergence (greenhouse pot test); set-up: key: 0: = ohne Wirkung bzw. Schaden; 1: = 0 - 20 % Wirkung bzw. Schaden; = 20 - 40 % Wirkung bzw. Schaden; 3: = 40 - 60 % Wirkung bzw. Schaden; 4: = 60 - 80 % Wirkung bzw. Schaden; 5: = 80 - 100 % Wirkung bzw. Schaden; conditions: post-emergence (three-leaf stage), 2,5 kg a.i./ha, visual rating after ca. 3-4 weeks
Excerpt: as §1, §4

Row | SMILES | Herbizide Wirkung im Vorauflauf CRS (Chrysanthemum segetum [1]) | Herbizide Wirkung im Vorauflauf AS (Avena sativa [2]) | Herbizide Wirkung im Vorauflauf SIA (Sinapis arvensis [3]) | Herbizide Wirkung im Vorauflauf STM (Stellaria media [4]) | Herbizide Wirkung im Vorauflauf ECG (Echinochloa crus-galli [5]) | Herbizide Wirkung im Nachauflauf CRS (Chrysanthemum segetum [6]) | Herbizide Wirkung im Nachauflauf AS (Avena sativa [7]) | Herbizide Wirkung im Nachauflauf SIA (Sinapis arvensis [8]) | Herbizide Wirkung im Nachauflauf STM (Stellaria media [9]) | Herbizide Wirkung im Nachauflauf ECG (Echinochloa crus-galli [10])
1 | CCOC(OC(=O)c1cc(Oc2ccc(C(F)(F)F)cc2Cl)ccc1[N+](=O)[O-])C(Cl)(Cl)Cl (stereo not drawn) [compound 5, 5-(2-Chlor-4-trifluormethylahenoxy)-2-nitrobenzoesäure-2,2,2-trichlor-1-ethoxyethylester] | 5 (= 80 - 100 % Wirkung bzw. Schaden) | 2 (= 20 - 40 % Wirkung bzw. Schaden) | 5 (= 80 - 100 % Wirkung bzw. Schaden) | 2 (= 20 - 40 % Wirkung bzw. Schaden) | 3 (= 40 - 60 % Wirkung bzw. Schaden) | 4 (= 60 - 80 % Wirkung bzw. Schaden) | 1 (= 0 - 20 % Wirkung bzw. Schaden) | 5 (= 80 - 100 % Wirkung bzw. Schaden) | 2 (= 20 - 40 % Wirkung bzw. Schaden) | 2 (= 20 - 40 % Wirkung bzw. Schaden)
2 | CC1(C)OCC(COC(OC(=O)c2cc(Oc3ccc(C(F)(F)F)cc3Cl)ccc2[N+](=O)[O-])C(Cl)(Cl)Cl)O1 (stereo not drawn) [compound 6, 5-(2-Chlor-4-trifluormethylphenoxy)-2-nitrobenzoesäure-1-(2,2-dimethyl-1,3-dioxolan-4-yl)-methoxy-2,2,2-trichlorethylester] | 3 (= 40 - 60 % Wirkung bzw. Schaden) | 1 (= 0 - 20 % Wirkung bzw. Schaden) | 2 (= 20 - 40 % Wirkung bzw. Schaden) | 0 | 0 | 4 (= 60 - 80 % Wirkung bzw. Schaden) | 1 (= 0 - 20 % Wirkung bzw. Schaden) | 4 (= 60 - 80 % Wirkung bzw. Schaden) | 3 (= 40 - 60 % Wirkung bzw. Schaden) | 0
3 | O=C(OC(OCC(F)(F)C(F)F)C(Cl)(Cl)Cl)c1cc(Oc2ccc(C(F)(F)F)cc2Cl)ccc1[N+](=O)[O-] (stereo not drawn) [compound 7] | 5 (= 80 - 100 % Wirkung bzw. Schaden) | 3 (= 40 - 60 % Wirkung bzw. Schaden) | 3 (= 40 - 60 % Wirkung bzw. Schaden) | 2 (= 20 - 40 % Wirkung bzw. Schaden) | 5 (= 80 - 100 % Wirkung bzw. Schaden) | 5 (= 80 - 100 % Wirkung bzw. Schaden) | 2 (= 20 - 40 % Wirkung bzw. Schaden) | 5 (= 80 - 100 % Wirkung bzw. Schaden) | 5 (= 80 - 100 % Wirkung bzw. Schaden) | 3 (= 40 - 60 % Wirkung bzw. Schaden)
4 | N#CCCSCCOC(OC(=O)c1cc(Oc2ccc(C(F)(F)F)cc2Cl)ccc1[N+](=O)[O-])C(Cl)(Cl)Cl (stereo not drawn) [compound 9] | 5 (= 80 - 100 % Wirkung bzw. Schaden) | 4 (= 60 - 80 % Wirkung bzw. Schaden) | 4 (= 60 - 80 % Wirkung bzw. Schaden) | 3 (= 40 - 60 % Wirkung bzw. Schaden) | 4 (= 60 - 80 % Wirkung bzw. Schaden) | 4 (= 60 - 80 % Wirkung bzw. Schaden) | 1 (= 0 - 20 % Wirkung bzw. Schaden) | 5 (= 80 - 100 % Wirkung bzw. Schaden) | 0 | 2 (= 20 - 40 % Wirkung bzw. Schaden)
5 | CCOC(=O)COC(OC(=O)c1cc(Oc2ccc(C(F)(F)F)cc2Cl)ccc1[N+](=O)[O-])C(Cl)(Cl)Cl (stereo not drawn) [compound 22] | 5 (= 80 - 100 % Wirkung bzw. Schaden) | 4 (= 60 - 80 % Wirkung bzw. Schaden) | 5 (= 80 - 100 % Wirkung bzw. Schaden) | 2 (= 20 - 40 % Wirkung bzw. Schaden) | 5 (= 80 - 100 % Wirkung bzw. Schaden) | 5 (= 80 - 100 % Wirkung bzw. Schaden) | 5 (= 80 - 100 % Wirkung bzw. Schaden) | 5 (= 80 - 100 % Wirkung bzw. Schaden) | 3 (= 40 - 60 % Wirkung bzw. Schaden) | 5 (= 80 - 100 % Wirkung bzw. Schaden)
6 | CCOC(=O)C(C)OC(OC(=O)c1cc(Oc2ccc(C(F)(F)F)cc2Cl)ccc1[N+](=O)[O-])C(Cl)(Cl)Cl (stereo not drawn) [compound 23] | 5 (= 80 - 100 % Wirkung bzw. Schaden) | 5 (= 80 - 100 % Wirkung bzw. Schaden) | 5 (= 80 - 100 % Wirkung bzw. Schaden) | 5 (= 80 - 100 % Wirkung bzw. Schaden) | 5 (= 80 - 100 % Wirkung bzw. Schaden) | 5 (= 80 - 100 % Wirkung bzw. Schaden) | 1 (= 0 - 20 % Wirkung bzw. Schaden) | 5 (= 80 - 100 % Wirkung bzw. Schaden) | 5 (= 80 - 100 % Wirkung bzw. Schaden) | 2 (= 20 - 40 % Wirkung bzw. Schaden)
7 | CCOC(=O)C(C)(C)OC(OC(=O)c1cc(Oc2ccc(C(F)(F)F)cc2Cl)ccc1[N+](=O)[O-])C(Cl)(Cl)Cl (stereo not drawn) [compound 30] | 5 (= 80 - 100 % Wirkung bzw. Schaden) | 5 (= 80 - 100 % Wirkung bzw. Schaden) | 5 (= 80 - 100 % Wirkung bzw. Schaden) | 2 (= 20 - 40 % Wirkung bzw. Schaden) | 5 (= 80 - 100 % Wirkung bzw. Schaden) | 5 (= 80 - 100 % Wirkung bzw. Schaden) | 5 (= 80 - 100 % Wirkung bzw. Schaden) | 5 (= 80 - 100 % Wirkung bzw. Schaden) | 5 (= 80 - 100 % Wirkung bzw. Schaden) | 4 (= 60 - 80 % Wirkung bzw. Schaden)
8 | COC(=O)CC(OC(OC(=O)c1cc(Oc2ccc(C(F)(F)F)cc2Cl)ccc1[N+](=O)[O-])C(Cl)(Cl)Cl)C(=O)OC (stereo not drawn) [compound 31] | 5 (= 80 - 100 % Wirkung bzw. Schaden) | 5 (= 80 - 100 % Wirkung bzw. Schaden) | 5 (= 80 - 100 % Wirkung bzw. Schaden) | 2 (= 20 - 40 % Wirkung bzw. Schaden) | 5 (= 80 - 100 % Wirkung bzw. Schaden) | 5 (= 80 - 100 % Wirkung bzw. Schaden) | 4 (= 60 - 80 % Wirkung bzw. Schaden) | 5 (= 80 - 100 % Wirkung bzw. Schaden) | 5 (= 80 - 100 % Wirkung bzw. Schaden) | 3 (= 40 - 60 % Wirkung bzw. Schaden)
9 | CCOC(=O)C(C)OC(OC(=O)c1cc(Oc2c(Cl)cc(C(F)(F)F)cc2Cl)ccc1[N+](=O)[O-])C(Cl)(Cl)Cl (stereo not drawn) [compound 34] | 5 (= 80 - 100 % Wirkung bzw. Schaden) | 2 (= 20 - 40 % Wirkung bzw. Schaden) | 5 (= 80 - 100 % Wirkung bzw. Schaden) | 5 (= 80 - 100 % Wirkung bzw. Schaden) | 1 (= 0 - 20 % Wirkung bzw. Schaden) | 5 (= 80 - 100 % Wirkung bzw. Schaden) | 5 (= 80 - 100 % Wirkung bzw. Schaden) | 5 (= 80 - 100 % Wirkung bzw. Schaden) | 5 (= 80 - 100 % Wirkung bzw. Schaden) | 4 (= 60 - 80 % Wirkung bzw. Schaden)
